Key:
IL-12p70 = assay: Pro-inflammatory cytokines in sera of CIA Collagen mice (ELISA, day 58): IL-12p70; type: in vivo; settings: Dexamethasone oral 1 mg/kg, 20 times between day 28 and 57
Method: (§1) Critical administration 124 disclosed herein is further described below. Q5D represents administration 5 days a part. TBSV·pLIp1 and wt TBSV shown in Table 1 may include liquid form that are not sterile and stored in −20° C. TBSV·pLIp1 may be given at the dose of 50 μG/100 μL Male DBA/1J mice (8 weeks; Envigo, Italy) may be used for these studies. Mice may be housed in individual cages (two for each group) and maintained under a 12:12 light-dark cycle at 21° C.±1° C. and 50%±5% humidity. The animals may be acclimated to their environment for 1 week and had ad libitum access to tap water and standard rodent diet. All animal experiments may be complied with regulations in Italy (D.M. 116192), Europe (O.J of E.C. L 358/112/18/1986), and the United States (Animal Welfare Assurance Number A5594-01, Department of Health and Human Services, USA). […] Arthritis was assessed by using qualitative severity score system and hind paw volume (mL) measured by a plethysmometer on day 20, 22, 24, 26, 28, 30, 32, 34, 36, 38, 40, 42, 44, 46 48, 50, 52, 54, 56 and 58. Body weight was recorded on day 0, 6, 13, 16, 18, 20, 22, 24, 26, 28, 30, 32, 34, 36, 38, 40, 42, 44, 46, 50, 52, 54, 56 and 58. […]

IL-1β = assay: Pro-inflammatory cytokines in sera of CIA Collagen mice (ELISA, day 58): IL-1β; type: in vivo; settings: Dexamethasone oral 1 mg/kg, 20 times between day 28 and 57
Method: as §1

C[C@@H]1C[C@H]2[C@@H]3CCC4=CC(=O)C=C[C@]4(C)[C@@]3(F)[C@@H](O)C[C@]2(C)[C@@]1(O)C(=O)CO [Dexamethasone, dexamethasone]
IL-12p70, % of reduction vs CIA Collagen (IL-12p70): 37.95%
IL-1β, % of reduction vs CIA Collagen (IL-1β): 22.74%

From US12527849B2, “Apparatus for determining administration form of a composition of an engineered virus-based nanoparticle for a treatment of an autoimmune condition” (Diamante Srl, priority 2021, dated 2026)
